Data on five molecules can be found in US9295679B2, “Prodrugs of C-17-heteroaryl steroidal CYP17 inhibitors/antiandrogens: synthesis, in vitro biological activities, pharmacokinetics and antitumor activity” (University of Maryland, Baltimore, priority 2008, dated 2016).

As usually defined, the GI50 is the concentration giving 50% growth inhibition.

The subject of one data set is DU-145. Nature of the data set: MTT cell viability assay, DU-145. The format is cell-based. The settings on record: for GI90 / GI50: DU-145, MTT, 96 hours exposure. The protocol:
(§1) All cell lines were obtained from American Type Culture Collection (Rockville, Md.) and maintained in RPMI 1640 media supplemented with 10% fetal bovine serum and 5% penicillin/streptomycin solution. Cells were grown as a monolayer in a humidified incubator (5% CO2) at 37° C. To determine the effect of the compounds on cell proliferation, cells were plated (2500 cells/well) in 96-well cell culture dishes (Corning, Inc. Corning, N.Y.). After a 24 hr attachment period, media was replaced with fresh media containing compounds (0.01 μM-100 μM) or vehicle (95% ethanol). The cells were then allowed to grow in the presence of the drugs for 96 hours. After 96 hours, relative cell viability was assessed using the MTT reagent (3-(4,5-dimethylthiazol-2-yl)-2,5-diphenyltetrazolium bromide) as described in Patel, et al. 2004^43. Experiments were carried out three times with six replicates per dose per experiment (n=18). Results were plotted using the average of each dose over all three experiments and fitted with a best-fit sigmoidal dose response variable slope curve using GraphPad Prism 4.01 (GraphPad Software, Inc.). […] Combination index (CI) was calculated as previously described^44. CI values less than 1 are considered synergistic.
For orientation: Tetrazolium assays rely on reduction of a dye to a coloured formazan, in cell work by metabolically active cells.

In the next data set the test system is PC-3. The data set can be described thus: MTT cell viability assay, PC-3. It counts as cell-based. The settings on record: for GI90 / GI50: MTT, 96 hours exposure. The protocol: Cells were grown as a monolayer in a humidified incubator (5% CO2) at 37° C. To determine the effect of the compounds on cell proliferation, cells were plated (2500 cells/well) in 96-well cell culture dishes (Corning, Inc. Corning, N.Y.). […] The cells were then allowed to grow in the presence of the drugs for 96 hours. […] Experiments were carried out three times with six replicates per dose per experiment (n=18). […] Combination index (CI) was calculated as previously described^44. CI values less than 1 are considered synergistic.

The subject of the next data set is LNCaP. Nature of the data set: MTT cell viability assay, LNCaP. It counts as cell-based, human. The settings on record: 96 hours exposure; for GI50: Homo sapiens. The protocol: as §1
The conditions of data set [1]: given clinically as the prodrug abiraterone acetate; cited from earlier work.
The conditions of data set [2]: mice, s.c. 50 mg/kg, cited from earlier work.
Data set [3] relates to PC-3 cells. Nature of the data set: Western blot of ERSR related proteins in PC-3 cells. It counts as cell-based. The settings on record: 20 μM DHA, PC-3. The protocol: Protein was isolated, subjected to SDS-PAGE, transferred and imaged as previously described^45. All primary antibodies were purchased from Cell Signaling (Danvers, Mass.). Quantitation of relative protein expression was determined via densitometry using the software ImageQuant 5.0 (Molecular Dynamics) with each protein normalized to its respective loading control. Results represent the average of at least three independent experiments, with representative blots shown.
(Immunoblotting shows a protein as a band on a membrane.)

The test system of data set [4] is PC-3 cells. The data set can be described thus: Absolute [Ca2+]i in PC-3 cells (Fura-2AM). It counts as cell-based. Conditions: 20 μM DHA, 2 hours. The procedure: PC-3 Cells were loaded with either fura-2 or fluo-3 indicator by incubation with 2 μM fura-2/AM or 2 μM fluo-3/AM in RPMI 1640 medium containing 10% fetal bovine serum for >60 min at room temperature. During experiments, the coverslips were mounted in a flow chamber and superfused with oxygenated Locke solution containing (in mM): 10 glucose, 136 NaCl, 5.6 KCl, 1.2 NaH2PO4, 14.3 NaHCO3, 1.2 MgCl2, and 2.2 CaCl2, pH 7.4, at room temperature (22-24° C.).
Cells loaded with fura-2 were placed in a perfusion chamber mounted on an inverted microscope (TE200; Nikon, Tokyo, Japan) equipped with a UV-transmitting objective (SuperFluor, 40×, N.A. 1.4, Nikon). Fura-2 was alternately excited by 340 nm and 380 nm light from monochrometers (Deltascan Illumination System, Photonic Technology International (PTI), South Brunswick, N.J.) and fura-2 emission was passed through a 515 nm longpass filter before detection by a cooled CCD camera (Retiga 2000R, Q-Imaging, Burnaby, Canada). For measurement of Ca^2+ transients in individual cells, coverslips with fluo-3 loaded cells were excited by the output of a 100 W mercury arc lamp that passed through a 480 nm bandpass filter (30 nm bandwidth). Fluorescence emission was passed through a 515 nm longpass filter before capture by a cooled CCD camera (Retiga 2000R, Q-Imaging). Image acquisition was performed with QCapture Pro (Q-Imaging) and analysis was performed with ImageJ (U.S. National Institutes of Health, Bethesda, Md., USA).
Fluo-3 Ca^2+ indicator measurements are reported as the fractional change in fluorescence intensity relative to baseline (ΔF/F0), which was determined as follows. Within a temporal sequence of fluorescence images, a region of interest (ROI) was drawn around each cell to be analyzed. The fluorescence signal from each cell was calculated as the pixel-averaged intensity within each ROI. In these experiments, a slight downward drift in baseline was typically observed, which was principally attributable to photo-bleaching of the indicator. In such cases, the drift was always well fit by a low-amplitude single-exponential decay. The fitted baseline value (F0) at every time point was then used to calculate ΔF/F0. ΔF/F0 values are reported as mean±SE. For fura-2 measurements, [Ca^2+]i was derived using the ratio method of Grynkiewicz et al.^46

For `C[C@]12CC[C@H](O)CC1=CC[C@@H]1[C@@H]2CC[C@]2(C)C(c3cccnc3)=CC[C@@H]12` [Abiraterone, abiraterone, reference compound], the figures for the GI90 with DU-145, with PC-3 and in the data set with LNCaP were >100 µM, >100 µM and 25.12 µM, respectively. The peak plasma concentrations result in data set [1] is listed as “below 1 μM”.
Consider `C[C@]12CCC(=O)C=C1CC[C@@H]1[C@@H]2CC[C@]2(C)C(n3cnc4ccccc43)=CC[C@@H]12` [Compound 6, 17-(1H-benzimidazole-1-yl)androsta-4,16-diene-3-one], for which the GI90 is 15.53 µM in the data set on DU-145, 8.07 µM in the data set with PC-3 and 13.46 µM with LNCaP. In addition, in data set [2] (plasma), the terminal half-lives is 39.93 min. Besides, the “detectability in plasma at 8 hours” value in data set [2] is on record as “neither was detectable”. In addition, in data set [2], the peak plasma levels is 5.15 ng/mL.
Regarding `C[C@]12CC[C@H](O)CC1=CC[C@@H]1[C@@H]2CC[C@]2(C)C(n3cncn3)=CC[C@@H]12` [Compound 16, 3β-Hydroxy-17-(1H-1,2,4-triazol-1-yl)androsta-5,16-diene], the GI90 in the data set with DU-145, with PC-3 and in the data set with LNCaP was >100 µM throughout. Also, the GI50 in the data set with DU-145 (Homo sapiens) worked out at 11 µM; with PC-3 (Homo sapiens), 2.91 µM; with LNCaP, 1.05 µM.
Turning to `C[C@]12CC[C@H](O)CC1=CC[C@@H]1[C@@H]2CC[C@]2(C)C(n3ccnc3)=CC[C@@H]12` [Compound 17, 3β-Hydroxy-17-(1H-imidazol-1-yl)androsta-5,16-diene], the figures for the GI90 in the data set on DU-145, in the data set with PC-3 and in the data set with LNCaP were 31.62 µM, 30.41 µM and 36.49 µM, respectively. Besides, the 50% growth inhibitory concentration (GI50) was determined as 5.31 µM with DU-145 (Homo sapiens), 1.86 µM in the data set with PC-3 (Homo sapiens) and 2.47 µM in the data set with LNCaP.
Turning to `C[C@]12CC[C@H](O)CC1=CC[C@@H]1[C@@H]2CC[C@]2(C)C(=O)CC[C@@H]12` [DHEA, dihydroandrosterone, reference compound], the concentration for 50% growth inhibition (GI50) in the data set on DU-145 is > 100 µM. Besides, the “growth inhibitory activity against DU-145 cells” value in the data set with DU-145 (up to 100 μM) is recorded as “lacked any growth inhibitory activity”. Further, in the data set with PC-3, the “fold less potent than Compound 5 in inhibiting PC-3 cells” value is listed as ~10 fold, the 50% growth inhibitory concentration (GI50) turned out to be 67.6 µM and the GI90 is >100 µM. For the same molecule, in the data set with PC-3 cells [3], the “effect on the protein markers measured” value is reported as “no significant effect”. Further, in the data set on PC-3 cells [4], the “effect on [Ca2+]i” value is reported as “did not have a significant effect”.
